In patent US9006257B2, “Bicyclic compounds as mPGES-1 inhibitors” (Glenmark Pharmaceuticals S.A., priority 2012, dated 2015):

Target: T1, Recombinant human mPGES-1 (Homo sapiens, UniProt O14684)
T1 construct: made in house; host or cells: CHO cells
T1 sequence (O14684 1-152): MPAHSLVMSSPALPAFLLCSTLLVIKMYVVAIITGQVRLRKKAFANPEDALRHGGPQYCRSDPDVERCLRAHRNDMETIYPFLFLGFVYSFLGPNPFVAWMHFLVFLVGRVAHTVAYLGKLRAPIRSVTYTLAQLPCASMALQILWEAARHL
Assay: In-vitro mPGES-1 inhibitor screening (inhibition of PGE2 formation from PGH2, HTRF detection)
Assay type: biochemical
Conditions: for inhibition at 1 µM: 1 μM test compound, read-out: Percentage inhibition at 1 μM; for inhibition at 1 µM / inhibition at 10 µM: crude microsomal fraction, 15 μM PGH2; for inhibition at 10 µM: 10 μM test compound, read-out: Percentage inhibition at 10 μM; for IC50: class symbol, concentration response curve
Method in brief: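 Recombinant human mPGES-1 from CHO microsomes (40-60 μg/mL protein) preincubated 10 min with compound in 0.1 M potassium phosphate, 2 mM EDTA, 2.5 mM GSH, 0.5% DMSO; 15 μM PGH2 reacted 1 min, stopped with stannous chloride. PGE2 by HTRF; IC50 by nonlinear regression of % inhibition.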

Work on `Cc1nc(NC(C)C)c2cccc(NC(=O)c3c(Cl)ccc(CNC(=O)C(C)(C)C)c3F)c2n1` [Example-57, 6-Chloro-2-fluoro-N-(4-(isopropylamino)-2-methylquinazolin-8-yl)-3-(pivalamidomethyl)benzamide] yielded an inhibition at 1 µM of 74.1%, an inhibition at 10 µM of 96% and an IC50 of over 100 nM.

Compound `Cc1nc(N2CCOCC2)c2cccc(NC(=O)c3c(Cl)ccc(CNC(=O)C(C)(C)C)c3F)c2n1` [Example-58, 6-Chloro-2-fluoro-N-(2-methyl-4-morpholinoquinazolin-8-yl)-3-(pivalamidomethyl)benzamide] has an inhibition at 1 µM of 51.3% and an inhibition at 10 µM of 93.4%.

`CC(C)Oc1ncnc2c(NC(=O)c3c(Cl)ccc(CNC(=O)C(C)(C)C)c3F)cccc12` [Example-59, 6-Chloro-2-fluoro-N-(4-isopropoxyquinazolin-8-yl)-3-(pivalamidomethyl)benzamide] showed an inhibition at 1 µM of 97.5%, an inhibition at 10 µM of 99.4% and an IC50 of under 50 nM.

Compound `Cc1nc(NC2CCC(F)(F)CC2)c2cccc(NC(=O)c3c(Cl)ccc(CNC(=O)C(C)(C)C)c3F)c2n1` [Example-60, 6-Chloro-N-(4-((4,4-difluorocyclohexyl)amino)-2-methylquinazolin-8-yl)-2-fluoro-3-(pivalamidomethyl)benzamide] has an inhibition at 1 µM of 86.5%, an inhibition at 10 µM of 91.7% and an IC50 of over 100 nM.

In the case of `CN(C)c1ncnc2c(NC(=O)c3c(Cl)ccc(CNC(=O)C(C)(C)C)c3F)cccc12` [Example-61, 6-Chloro-N-(4-(dimethylamino)quinazolin-8-yl)-2-fluoro-3-(pivalamidomethyl)benzamide], the inhibition at 1 µM is reported as 88.3%, the inhibition at 10 µM is reported as 97.2% and the IC50 is reported as over 100 nM.

`CC(C)(C)Nc1ncnc2c(NC(=O)c3c(Cl)ccc(CNC(=O)C(C)(C)C)c3F)cccc12` [Example-62, N-(4-(tert-Butylamino)quinazolin-8-yl)-6-chloro-2-fluoro-3-(pivalamidomethyl)benzamide] gave an inhibition at 1 µM of 97.3%, an inhibition at 10 µM of 97.8% and an IC50 of under 50 nM.

`CCOc1ccnc2c(NC(=O)c3c(Cl)ccc(CNC(=O)C(C)(C)C)c3F)cccc12` [Example-63, 6-Chloro-N-(4-ethoxyquinolin-8-yl)-2-fluoro-3-(pivalamidomethyl)benzamide] gave an inhibition at 1 µM of 90.8%, an inhibition at 10 µM of 94.7% and an IC50 of under 50 nM.

For `CC(C)Nc1ncnc2c(NC(=O)c3c(Cl)ccc(CNC(=O)C(C)(C)C)c3F)cccc12` [Example-64, 6-Chloro-2-fluoro-N-(4-(isopropylamino)quinazolin-8-yl)-3-(pivalamidomethyl)benzamide], the inhibition at 1 µM was 90.6%, the inhibition at 10 µM was 94.5% and the IC50 was under 50 nM.

For `Cc1nc(NC(C)(C)C)c2cccc(NC(=O)c3c(Cl)ccc(CNC(=O)C(C)(C)C)c3F)c2n1` [Example-65, N-(4-(tert-Butylamino)-2-methylquinazolin-8-yl)-6-chloro-2-fluoro-3-(pivalamidomethyl)benzamide], the inhibition at 1 µM was 94%, the inhibition at 10 µM was 93% and the IC50 was under 50 nM.

Compound `CC(C)(CO)C(=O)NCc1ccc(Cl)c(C(=O)Nc2cccc3c(Oc4cccc(C(F)(F)F)c4)ncnc23)c1F` [Example-66, 6-Chloro-2-fluoro-3-((3-hydroxy-2,2-dimethylpropanamido)methyl)-N-(4-(3-(trifluoromethyl)phenoxy)quinazolin-8-yl)benzamide] has an inhibition at 1 µM of 96.7%, an inhibition at 10 µM of 96.8% and an IC50 of under 50 nM.

In the case of `CC(C)(C)Nc1ncnc2c(NC(=O)c3cc(CNC(=O)C(C)(C)C)ccc3Cl)cccc12` [Example-67, N-(4-(tert-Butylamino)quinazolin-8-yl)-2-chloro-5-(pivalamidomethyl)benzamide], the inhibition at 1 µM is reported as 96.5%, the inhibition at 10 µM is reported as 100% and the IC50 is reported as under 50 nM.

`Cc1ccc(CNC(=O)C(C)(C)C)c(C)c1C(=O)Nc1cccc2c(NC(C)(C)C)ncnc12` [Example-68, N-(4-(tert-Butylamino)quinazolin-8-yl)-2,6-dimethyl-3-(pivalamidomethyl)benzamide] was tested, and the inhibition at 1 µM was 99.8%, the inhibition at 10 µM was 100% and the IC50 was under 50 nM.

`CC(C)(C)Nc1ncnc2c(NC(=O)c3c(Cl)ccc(CNC(=O)C(C)(C)CO)c3F)cccc12` [Example-69, N-(4-(tert-Butylamino)quinazolin-8-yl)-6-chloro-2-fluoro-3-((3-hydroxy-2,2-dimethylpropanamido)methyl)benzamide] gave an inhibition at 1 µM of 84.9%, an inhibition at 10 µM of 98.2% and an IC50 of under 50 nM.

`CC(C)C(=O)NCc1ccc(Cl)c(C(=O)Nc2cccc3c(NC(C)(C)C)ncnc23)c1F` [Example-70, N-(4-(tert-Butylamino)quinazolin-8-yl)-6-chloro-2-fluoro-3-(isobutyramidomethyl)benzamide] gave an inhibition at 1 µM of 100%, an inhibition at 10 µM of 98.8% and an IC50 of under 50 nM.

Compound `CC(C)(C)Nc1ncnc2c(NC(=O)c3cc(CNC(=O)C(C)(C)C)c(F)cc3Cl)cccc12` [Example-71, N-(4-(tert-Butylamino)quinazolin-8-yl)-2-chloro-4-fluoro-5-(pivalamidomethyl)benzamide] has an inhibition at 1 µM of 100%, an inhibition at 10 µM of 97.3% and an IC50 of under 50 nM.

For `CC(C)(C)Nc1ncnc2c(NC(=O)c3ccc(F)c(CNC(=O)C(C)(C)C)c3Cl)cccc12` [Example-72, N-(4-(tert-Butylamino)quinazolin-8-yl)-2-chloro-4-fluoro-3-(pivalamidomethyl)benzamide], the inhibition at 1 µM was 86.8%, the inhibition at 10 µM was 98.7% and the IC50 was 50 to 100 nM.

Compound `CC(C)C(=O)NCc1ccc(Cl)c(C(=O)Nc2cccc3c(NCC(F)(F)F)ncnc23)c1F` [Example-73, 6-Chloro-2-fluoro-3-(isobutyramidomethyl)-N-(4-((2,2,2-trifluoroethyl)amino)quinazolin-8-yl)benzamide] has an inhibition at 1 µM of 88.7%, an inhibition at 10 µM of 93.2% and an IC50 of under 50 nM.

With `CC(C)C(=O)NCc1cnc(C(F)F)c(C(=O)Nc2cccc3c(Oc4cccc(C(F)(F)F)c4)ncnc23)c1` [Example-74, 2-(Difluoromethyl)-5-(isobutyramidomethyl)-N-(4-(3-(trifluoromethyl)phenoxy)quinazolin-8-yl)nicotinamide] the inhibition at 1 µM was 100%, the inhibition at 10 µM was 100% and the IC50 was under 50 nM.

`CC(C)C(=O)NCc1cnc(C(F)F)c(C(=O)Nc2cccc3c(NC(C)(C)C)ncnc23)c1` [Example-75, N-(4-(tert-Butylamino)quinazolin-8-yl)-2-(difluoromethyl)-5-(isobutyramidomethyl)nicotinamide] was tested, and the inhibition at 1 µM was 93.6%, the inhibition at 10 µM was 98.3% and the IC50 was under 50 nM.

`CC(C)Nc1ncnc2c(NC(=O)c3cc(CNC(=O)C(C)C)cnc3C(F)F)cccc12` [Example-76, 2-(Difluoromethyl)-5-(isobutyramidomethyl)-N-(4-(isopropylamino)quinazolin-8-yl)nicotinamide] was tested, and the inhibition at 1 µM was 83.5%, the inhibition at 10 µM was 93.4% and the IC50 was 50 to 100 nM.

`CC(C)Nc1ncnc2c(NC(=O)c3c(Cl)ccc(CNC(=O)C(C)C)c3F)cccc12` [Example-77, 6-Chloro-2-fluoro-3-(isobutyramidomethyl)-N-(4-(isopropylamino)quinazolin-8-yl)benzamide] showed an inhibition at 1 µM of 78.4%, an inhibition at 10 µM of 99.9% and an IC50 of under 50 nM.

With `CC(C)C(=O)NCc1cnc(C(F)F)c(C(=O)Nc2cccc3c(NCC(F)(F)F)ncnc23)c1` [Example-78, 2-(Difluoromethyl)-5-(isobutyramidomethyl)-N-(4-((2,2,2-trifluoroethyl)amino)quinazolin-8-yl)nicotinamide] the inhibition at 1 µM was 83.3%, the inhibition at 10 µM was 94.8% and the IC50 was under 50 nM.

`CC(C)(C)Nc1ncnc2c(NC(=O)c3c(Cl)ccc(CNC(=O)C(C)(C)CF)c3F)cccc12` [Example-79, N-(4-(tert-Butylamino)quinazolin-8-yl)-6-chloro-2-fluoro-3-((3-fluoro-2,2-dimethylpropanamido)methyl)benzamide] showed an inhibition at 1 µM of 100%, an inhibition at 10 µM of 99.1% and an IC50 of under 50 nM.

`CC(C)C(=O)NCc1cnc(C(F)F)c(C(=O)Nc2cccc3c(Oc4ccc(F)c(C(F)(F)F)c4)ccnc23)c1` [Example-80, 2-(Difluoromethyl)-N-(4-(4-fluoro-3-(trifluoromethyl)phenoxy)quinolin-8-yl)-5-(isobutyramidomethyl)nicotinamide] showed an inhibition at 1 µM of 99.7%, an inhibition at 10 µM of 98.5% and an IC50 of under 50 nM.
